Experiments:
[1] = Plasma levels of compound 17 after intravenous injection in normal rats (LC-MS/MS); assay type: in vivo, rat; settings: 3 or 10 μmol/kg intravenous injection, normal conscious male Sprague-Dawley rats, FIG. 1
Experimental: (§1) 2-(2-Hydroxy-phenyl)-3-phenethyl-3H-quinazolin-4-one (compound 17) (3 or 10 μmol/kg) or vehicle was administered by intravenous injection over about 15 seconds to normal conscious male Sprague-Dawley rats with chronic indwelling arterial and venous catheters. Arterial blood samples were collected immediately before, and at 1, 5, 10, and 30 min after the start of the injection for measurement of the levels of parathyroid hormone (PTH), ionized calcium (Ca^2+) and compound 17 in plasma. PTH was measured using a specific rat PTH (1-84) ELISA (Immutopics, San Clemente, Calif.) and compound 17 was quantified by an LC-MS/MS method. Positive ions were generated by turbo ionspray and were subsequently fragmented by collision-induced dissociation, so that compound 17 could be detected by selected-reaction monitoring.

[2] = test system: parathyroid hormone (PTH); experiment: Plasma PTH levels after intravenous injection in normal rats (rat PTH (1-84) ELISA); assay type: in vivo; settings: 3 or 10 μmol/kg intravenous injection, normal conscious male Sprague-Dawley rats, FIG. 2
Experimental: as §1

ionized calcium (Ca^2+) = experiment: Plasma ionized calcium levels after intravenous injection in normal rats; assay type: in vivo, rat; settings: 3 or 10 μmol/kg intravenous injection, normal conscious male Sprague-Dawley rats, up to 30 min (not shown)
Experimental: as §1

Q: With `O=c1c2ccccc2nc(-c2ccccc2O)n1CCc1ccccc1` [compound 17, 2-(2-Hydroxy-phenyl)-3-phenethyl-3H-quinazolin-4-one] as the molecule, how does the “course of plasma levels of compound after the maximum” value [1] read?
A: The value was “declined rapidly during the next 10-30 min”.

Q: What about the “time after injection at which plasma levels of compound were maximal” value [1] of the same molecule?
A: The value was 1 min.

Q: And the “effect on plasma PTH levels” value [2]?
A: The value was “rapid, but transient dose-related increase”.

Q: And the “time after injection at which plasma PTH levels were maximal” value [2]?
A: The value was 1 min.

Q: What about the “time after injection by which plasma PTH levels had returned to pre-dose levels” value [2] of the same molecule?
A: The value was no more than 10 min.

Q: What about the “changes in plasma Ca^2+ levels” value (ionized calcium (Ca^2+)) of the same molecule?
A: Its value is “no consistent changes”.

Reference: patent US20060052345A1, “Quinazolinone compounds as calcilytics” (NPS Pharmaceuticals, Inc., priority 2002, published 2006)
